Measured values from patent publication US5589497A, “Phenylimidazolidines” (Uclaf; Roussel, priority 1992, dated 1996).

Biological target: T1, androgenic receptors (rat prostate cytosol) (Rattus norvegicus, UniProt P15207)
T1 construct: from tissue; host or cells: prostate cytosol (209,000 g supernatant) of castrated male Sprague Dawley EOPS rats
T1 sequence (P15207 1-902): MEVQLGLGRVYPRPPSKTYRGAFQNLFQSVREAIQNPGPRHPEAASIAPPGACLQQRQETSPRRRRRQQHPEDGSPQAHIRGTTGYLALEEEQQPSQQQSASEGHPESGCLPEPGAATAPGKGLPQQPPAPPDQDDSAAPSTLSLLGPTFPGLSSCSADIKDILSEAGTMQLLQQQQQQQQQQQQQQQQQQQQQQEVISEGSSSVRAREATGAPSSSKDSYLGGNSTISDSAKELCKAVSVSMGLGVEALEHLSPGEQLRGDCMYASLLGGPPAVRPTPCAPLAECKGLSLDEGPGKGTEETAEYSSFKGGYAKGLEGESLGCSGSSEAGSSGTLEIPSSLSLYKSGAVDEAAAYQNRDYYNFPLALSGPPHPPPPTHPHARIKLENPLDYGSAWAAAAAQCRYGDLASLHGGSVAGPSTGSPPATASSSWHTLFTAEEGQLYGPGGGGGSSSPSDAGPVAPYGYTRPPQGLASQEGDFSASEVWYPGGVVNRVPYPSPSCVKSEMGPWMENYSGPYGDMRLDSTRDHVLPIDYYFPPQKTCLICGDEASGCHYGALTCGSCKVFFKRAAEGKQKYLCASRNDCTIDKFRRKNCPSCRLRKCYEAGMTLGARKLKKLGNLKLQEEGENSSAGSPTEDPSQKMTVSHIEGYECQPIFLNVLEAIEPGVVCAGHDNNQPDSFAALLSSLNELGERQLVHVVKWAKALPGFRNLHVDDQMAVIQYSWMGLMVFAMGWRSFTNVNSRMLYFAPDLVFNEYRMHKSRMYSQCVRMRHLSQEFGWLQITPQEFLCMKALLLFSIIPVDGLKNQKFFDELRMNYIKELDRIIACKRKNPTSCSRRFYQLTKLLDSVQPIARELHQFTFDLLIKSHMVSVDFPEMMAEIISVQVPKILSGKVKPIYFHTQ
Test: Study of androgenic receptors: relative binding affinity (RBA) versus tritiated testosterone in prostate cytosol of castrated rats
Set-up: species or system male rats of the Sprague Dawley EOPS strain
Settings: 24 H incubation; testosterone=100; RBA=100(CH)/(CX)
Description: Male rats of the Sprague Dawley EOPS strain weighing 180 to 200 g, castrated 24 hours previously, were killed and the prostate was removed, weighed and homogenized at 0° C. with a potter glass in a buffered solution (Tris 10 mM, saccharose 0.25M, PMSF (phenyl methane sulfonyl fluoride) 0.1 mM, sodium molybdate 20 mM, HCl pH 7.4 into which was added extemporaneously […] of DTT (DL dithiothreitol) at a rate of 1 g of tissue per 8 ml of buffer solution. The homogenate was then ultracentrifuged at 0° C. for 30 minutes at 209,000 g and the aliquots of supernatant (=cytosol) were incubated for 30 minutes and 24 hours with a concentration (T) of tritiated testosterone and in the presence of increasing concentrations (0 to 2500×10^-9 M) of cold testosterone or the test products. The concentration of bound tritiated testosterone (B) was then measured for each incubate by adsorption method of carbon-dextran. The relative affinity of bonding (RBA) was calculated.
The following two curves were graphed: the percentage of the bound tritiated hormone B/T as a logarithmic function of the concentration of the cold hormone and B/T as a logarithmic function of the concentration of the tested cold product. The line of the equation I50 =(B/Tmax+B/Tmin)/2 was determined.
B/T max=% of the bound tritiated hormone for an incubation of this tritiated hormone at concentration (T). […]

SMILES | relative affinity of bonding (RBA)
CN1C(=S)N(c2ccc(C#N)c(C(F)(F)F)c2)C(=O)C12CCCC2 [Example 3, 4-(1-methyl-4-oxo-2-thioxo-1,3-diazaspiro(4,4)nonan-3-yl)-2-trifluoromethyl-benzonitrile] | 27
CCC1(CC)C(=O)N(c2ccc(C#N)c(C(F)(F)F)c2)C(=S)N1C [Example 5, 4-(4,4-diethyl-3-methyl-5-oxo-2-thioxo-1-imidazolidinyl)-2-trifluoromethyl-benzonitrile] | 8
